PMC9013686, “Inter-individual variation in chlorpyrifos toxicokinetics characterized by physiologically based kinetic (PBK) and Monte Carlo simulation comparing human liver microsome and Supersome™ cytochromes P450 (CYP)-specific kinetic data as model input” (Archives of Toxicology, 2022)

Experiment: PBK modelling with Monte Carlo simulation (Supersome-based and HLM-based)
Set-up: species or system human
Conditions: oral 0.5 mg/kg bw CPF, in vivo data Nolan et al. [1984]
From the text: Compared to the PBK model of Zhao et al. ([2019]), only the fractional absorption was changed to 0.462, which is the mean value of reported fa values from Timchalk et al. ([2002]) (fa = 0.224) and Nolan et al. ([1984]) (fa = 0.7), while for the other model parameters (non-kinetic), the mean values as reported in Zhao et al. ([2019]) were used.
Compared to the model of Zhao et al. ([2019]), in the Supersome™-based PBK model approach, the kinetic parameters of pathway 1 and pathway 2 were replaced from HLM-derived values to Supersome™-derived values, while the kinetic parameters of pathway 3 were kept the same. For pathway 4, instead of using the reported kinetic parameters from Mosquin et al. ([2009]), the calculated mean values of kinetic parameters obtained based on 25 individual HP samples derived by the present study were used. […]
The performance of the Supersome™-based PBK model and the HLM-based PBK model (biphasic) were evaluated by comparing their predicted time-dependent TCPy and CPF blood concentrations including the maximum total (bound and unbound) blood concentration (Cmax) or time-dependent blood concentration, and the cumulative time-dependent urinary TCPy excretion with corresponding available in vivo data (Drevenkar et al. [1993]; Nolan et al. [1984]; Timchalk et al. [2002]) upon similar dosing regimens or estimated dose level. […]

Compound: Oc1nc(Cl)c(Cl)cc1Cl [TCPy, 3,5,6-trichloro-2-pyridinol]
- predicted blood Cmax versus mean in vivo Cmax (both PBK models): 2.2 fold
- predicted urinary excretion at 120 h versus in vivo value: 0.8 fold
